Measured values published in US11510890B2, “Meroterpenoid compounds for use in the prevention and treatment of a neurological disorder” (SOCIETE DES PRODUITS NESTLE S.A., priority 2017, dated 2022).
pEC50, pIC50: −log10 of the molar value. Like-named read-outs stand apart in the source and are kept apart here.

Legend:
[1] = system: human iPSc derived into astrocyte (iCell astrocytes); experiment: Lactate release dose response in human iPSc derived astrocytes; format: cell-based; conditions: for pEC50: lactate secretion after 2 hours compound treatment, read-out: Astrocytes Lactate release EC50
Experimental: Dose response curves were established for compounds identified in the screen to stimulate lactate secretion. The EC50 values for the stimulation of lactate secretion were determined using primary human IPS cell derived astrocytes.
(§1) Differentiated human iPSCs (iCell astrocytes, and iCell cardiomyocytes) were obtained from Cellular Dynamics International (CDI, Madison, Wis., USA). iCell astrocytes were cultured in DMEM supplemented with 10% fetal calf serum and N2 complement. iCell cardiomyocytes were maintained in a medium supplied by CDI. Cell cultures were kept in a humidified atmosphere (5% CO2) at 37° C.
Dose response of compounds on lactate release from human iPSc derived into astrocyte fitted with a log (agonist) vs. response variable slope to extract […] (EC50). Mean±SEM in duplicate.
(§2) The toxicity expressed in log IC50 (ATP content after 24 hours compound treatment on human iPSc derived into cardiomyocyte) was compared against the lactate release in log EC50 (lactate secretion after 2 hours compound treatment in human iPSc derived into astrocytes).

CCF-STTG1 = experiment: Lactate release orthogonal assay (spectrophotometric enzymatic assay); format: cell-based, human; conditions: CCF-STTG1, supernatants after 2 hours, colorimetric kit
Experimental: CCF-STTG1 were seeded in 384-well plates. Two days later, the cells were washed 3 times and incubated 30 min in Krebs-Ringer bicarbonate HEPES (KRBH) buffer containing (in mM): 140 NaCl, 3.6 KCl, 0.5 NaH2PO4, 0.5 MgSO4, 1.5 CaCl2, 10 HEPES, 5 NaHCO3 (pH7.4) supplemented with 2.5 mM glucose. The cells were maintained in the buffer in the presence of tested compounds. Supernatants were collected after 2 hours and assessed for lactate concentration. Lactate concentration in the supernatant was determined by a spectrophotometric enzymatic assay (lactate colorimetric assay kit II no. K627; BioVision, Milpitas, Calif. USA). In this kit, lactate is oxidized by lactate dehydrogenase to generate a product which interacts with a probe to produce a color (λmax=450 nm).
Absorbance was measure after 30 min at 450 nm using Bioteck Synergie Neo multimode reader. Background absorbance obtained in the absence of kit was subtracted from each value.
The stimulation of lactate secretion after treatment with meroterpenoid compounds was confirmed in an orthogonal assay based on another enzyme to measure lactate. The results of the lactate release measurement during the drug discovery screen for each compound and the results of lactate release measure with the orthogonal assay were correlated.

[2] = system: Human astrocytoma cell line CCF-STTG1; experiment: Lactate release screening assay (fluorescent enzymatic assay); format: cell-based; conditions: for Primary screen %: CCF-STTG1, supernatants after 2 hours
Experimental: Human astrocytoma cell line CCF-STTG1 was cultured at 37° C. in a humidified atmosphere (5% CO2) in RPMI-1640 medium supplemented with 10% (v/v) heat-inactivated fetal calf serum, 50 μg/ml penicillin and 100 μg/ml streptomycin.
CCF-STTG1 were seeded in 384-well plates. Two days later, the cells were washed 3 times and incubated 30 min in Krebs-Ringer bicarbonate HEPES (KRBH) buffer containing (in mM): 140 NaCl, 3.6 KCl, 0.5 NaH2PO4, 0.5 MgSO4, 1.5 CaCl2, 10 HEPES, 5 NaHCO3 (pH7.4) supplemented with 2.5 mM glucose. Then, the cells were maintained in the buffer in the presence of tested compounds. Supernatants were collected after 2 hours and were assessed for lactate concentration. Lactate concentration in the supernatants were determined by fluorescent enzymatic assay. Samples were diluted in assay reagent containing (in mM or U/ml)): 100 sodium phosphate (pH7.5), 0.1 EDTA, 0.05 Amplex UltraRed, 0.1 Lactate oxidase, 1.5 Horseradish Peroxidase.
Fluorescence emission was measured at 600 nm after an excitation at 500 nm using Bioteck Synergie Neo multimode reader after 30 min at room temperature protected from direct light.

[3] = system: human iPSc derived into cardiomyocyte (iCell Cardiomyocytes); experiment: Toxicity - ATP content (CellTiter-Glo); format: cell-based; conditions: for pIC50: ATP content after 24 hours compound treatment, read-out: Cardiomyocytes Toxicity IC50
Experimental: as §1
iCell Cardiomyocytes were seeded in 384-well plates. Eight days later cells were treated for 24 hours with compounds. Cell viability was determined by the quantification of intracellular ATP after cell lysis. ATP was used as an indicator of metabolically active cells. ATP was measured using a luminescent cell viability assay (CellTiter-Glo®; […]). Luminescence was measured after 20 min in a Bioteck Synergie Neo multimode reader.
Toxicity of the meroterpenoid compounds were evaluated in human IPS cell derived cardiomyocytes by measuring total ATP in cell lysates.
Dose response of compounds on human iPSc derived into cardiomyocyte with evaluation of the ATP level using cell titer glow. Results were normalized between untreated cells (100%) and positive control (0%).
as §2

[4] = log of EC50 in M, given negative, 2 hours compound treatment
[5] = log of IC50 in M, given negative, ATP content after 24 hours

Compound | pEC50 [1] | Astrocytes Lactate release logEC50 [1, 4] | Orthogonal assay % (CCF-STTG1) [%] | Primary screen % [2] [%] | Reconfirmation % [2] [%] | pIC50 [3] | Cardiomyocytes Toxicity log IC50 [3, 5] | pIC50 ([3]; Homo sapiens, iPSC) | IC50 ([3]; Homo sapiens, iPSC, log of IC50 in M, given negative, ATP content after 24 hours, read-out: Cardiomyocytes Toxicity log IC50 (converted)) [µM] | pEC50 ([1]; Homo sapiens, iPSC) | EC50 ([1]; Homo sapiens, iPSC, log of EC50 in M, given negative, 2 hours compound treatment, read-out: Astrocytes Lactate release logEC50 (converted)) [µM]
CC(C)=CCC/C(C)=C/Cc1c(O)cc(CCc2ccccc2)c(C(=O)O)c1O [73436-04-1, 4-O-Demethylamorfrutin B] | 5.00 | −5.0 | 68 | 82 | 77 |  |  |  |  |  | 
COc1cc(CCc2ccccc2)c(C(=O)O)c(O)c1CC=C(C)C [80489-90-3, Amorfrutin] | 5.49 | −5.5 | 80 | 85 | 122 | 4.33 | −4.3 |  |  |  | 
CC(/C=C/[C@@]1(C)[C@H](C)CCC(=O)[C@@H]1C)=C\Cc1c(O)cc(C)c(C=O)c1O [165187-16-6, Cylindrol B] | 5.17 | −5.2 | 67 | 100 | 61 | 4.51 | −4.5 |  |  |  | 
C/C(=C\Cc1c(O)cc(C)c(C=O)c1O)CC[C@@]1(C)[C@H](C)CCC(=O)[C@@H]1C [22562-68-1, Antibiotic LL-Z 1272ε] | 5.59 | −5.6 | 68 | 72 | 83 | 4.09 | −4.1 |  |  |  | 
Lasalocid [25999-31-9] | 5.36 | −5.4 | 53 | 88 | 73 | 4.96 | −4.9 |  |  |  | 
C/C(=C\Cc1c(O)c(Cl)c(C)c(C=O)c1O)CC[C@@]1(C)[C@H](C)CCC(=O)[C@@H]1C [22562-67-0, Ilicicolin C] | 6.82 | −6.8 | 84 | 70 | 74 | 4.15 | −4.2 |  |  |  | 
CC(=O)OC(C[C@@]1(C)[C@H](C)CCC(=O)[C@@H]1C)/C(C)=C/Cc1c(O)c(Cl)c(C)c(C=O)c1O (stereo partly drawn) [38965-84-3, Chloronectrin] |  |  | 68 | 104 | 97 | 4.52 | −4.5 |  |  |  | 
CC(/C=C/C1(C)C(C)C=CC(=O)C1C)=C\Cc1c(O)c(Cl)c(C)c(C=O)c1O (stereo not drawn) [22581-11-9] | 7.85 | −7.9 | 61 | 68 | 50 | 5.49 | −5.5 |  |  |  | 
CC(/C=C/[C@@]1(C)[C@H](C)CCC(=O)[C@@H]1C)=C\Cc1c(O)c(Cl)c(C)c(C=O)c1O [26166-39-2, Ascochlorin] |  |  |  |  |  |  |  | 5.92 | 1.26 | 7.96 | 0.0126
Ilicicolin F [22738-98-3] | 7.57 | −7.6 | 119 | 96 | 142 | 5.15 | −5.2 |  |  |  | 
